Type in all cases: in vivo, mouse
The test system of data set [1] is RyR2^+/RyR^R4496C mice. Description: ECG radiotelemetry: effect of propranolol on RR and QT interval in RyR2+/RyRR4496C mice. As to the method:
The cardiac activity in transgenic animals is preferably measured by continuous ECG monitoring. ECG radiotelemetry monitors (Data Sciences International) are typically implanted intraabdominally under general anaesthesia. After recovery from surgery the electrocardiographic signal is recorded continuously in conscious animal kept in special cages provided with receivers and connected to a A/D converted an a PC for data storage. Off-line analyses of stored ECGs parameters comprise: quantification of arrhythmias, heart rate trends, heart rate variability assessment (power spectrum analysis), QT interval and T wave assessments. Other parameters of cardiac functionality measurable by ECG are the following: baseline QT interval (measured using the tangent method^23), RR interval, RR variability.
(§1) ECG radiotelemetry monitors (Data Sciences International) were implanted intraabdominally under general anaesthesia (Avertin […]). Body temperature was maintained at 37° C. by use of a thermally controlled heating pad (Harvard Apparatus). ECG was continuously monitored starting 48 h after surgery. After 72 hours of recovery from surgery phenotype characterization was performed.
(§2) One group (Group 1) of animals exercised on a treadmill until exhaustion. The animals were then injected with epinephrine 2 mg/kg i.p. (WT n=12, RyR2^+/RyR^R4496C n=14). A second group of animals (Group 2) was injected with epinephrine (2 mg/kg ip) and caffeine (120 mg/kg i.p.) (WT, n=8, RyR2^+/RyR^R4496C, n=7). ECG monitoring was performed continuously during both exercise and drug testing protocols. Five additional RyR2^+/RyR^R4496C animals were treated for 24 hours with propranolol i.p. (2 mg/Kg) every 12 hours before being exposed to the epinephrine and caffeine protocol.
(§3) Five RyR2^+/RyR^R4496C mice were treated with propranolol to evaluate if antiadrenergic compounds could prevent induction of arrhythmias. After drug administration we observed a prolongation of RR interval from 94.5±13 to 118±13 msec […] (p<0.001). […] Despite pretreatment with betablockers, the administration of caffeine and epinephrine elicited VTsust in 2 and VF in 2 (sustained arrhythmias in 4 mice); only one mouse had no arrhythmias (p=0.56; i.e. non significant versus RyR2+/RyR^R4496C mice).

For the next data set, the system named is WT mice. Description: ECG radiotelemetry: effect of betablockers on RR interval in WT mice.
The subject of data set [2] is RyR2^+/RyR^R4496C mice. Briefly: Epinephrine and caffeine arrhythmia induction after propranolol pretreatment (continuous ECG monitoring). As to the method:
Arrhythmias were defined as follows: non sustained ventricular tachycardia (VTns) was defined as a series of 4 to 10 consecutive repetitive ventricular ectopic beats (VEBs), sustained VT (VTsust) was defined as a run of >10 consecutive VEBs, ventricular fibrillation (VF) was defined as a VTsust degenerating into ventricular fibrillation leading to sudden death.
as §1, §2
Among the RyR2^+/RyR^R4496C mice 4/8 or 50% developed sustained arrhythmias (VTsust n=2; FIG. 4 panel B and VF n=2; FIG. 5 panel B p=0.02 versus WT; Table I).
as §3

[3] abbreviates: 5 pretreated mice, epinephrine 2 mg/kg i.p. and caffeine 120 mg/kg i.p.
[4] abbreviates: Group 2, N=5, epinephrine and caffeine i.p.

Marks after values point to notes of the source that are not given here.

As for `CC(C)NCC(O)COc1cccc2ccccc12` (stereo not shown) [propranolol], the “Baseline RR” value in the data set with RyR2^+/RyR^R4496C mice [1] (Group 2, N=5, beta blockade, p=0.0001 vs untreated RyR2^+/RyR^R4496C) is recorded as 121 + 23*. Further, the “Baseline QT” value in the data set with RyR2^+/RyR^R4496C mice [1] (Group 2, N=5, beta blockade, tangent method, ANOVA P=0.966) is reported as 23 + 0.2§. Besides, the “RR interval (in words)” value in the data set on RyR2^+/RyR^R4496C mice [1] (RyR2^+/RyR^R4496C animals pretreated with betablockers, Group 2) is listed as “significantly prolonged”. Besides, in the data set on RyR2^+/RyR^R4496C mice [1] (RyR2^+/RyR^R4496C mice after betablockers, p=0.69 vs WT), the “mean prolongation of RR interval” value came out at 23.62 ± 0.14 ms. In the data set with RyR2^+/RyR^R4496C mice [1] (RyR2^+/RyR^R4496C mice, p=0.52 vs WT), the “percentage of RR change after betablockers (Δ%=ΔRR*100/RR baseline)” value worked out at 25±3%. Further, the “RR interval after drug administration” value in the data set with RyR2^+/RyR^R4496C mice [1] (five RyR2^+/RyR^R4496C mice, propranolol i.p. 2 mg/Kg every 12 hours for 24 hours, prolongation from 94.5±13, p<0.001) came to 118 ± 13 ms. The “percentage of RR change after betablockers (Δ%=ΔRR*100/RR baseline)” value in the data set with WT mice (WT mice) turned out to be 27±5%. In the data set on WT mice (WT mice after betablockers), the “mean prolongation of RR interval” value is 22.92 ± 3.6 ms. For the same compound, in the data set with RyR2^+/RyR^R4496C mice [2] (setting [3]), the “number of mice with VF” value is on record as 2 and the “number of mice with VTsust” value came to 2. Also, the “number of mice with no arrhythmias” value in the data set with RyR2^+/RyR^R4496C mice [2] (5 pretreated mice, epinephrine and caffeine) is on record as “one”. In addition, the “sustained arrhythmias (number of mice)” value in the data set with RyR2^+/RyR^R4496C mice [2] (5 pretreated mice, epinephrine and caffeine, p=0.56 versus untreated RyR2+/RyR^R4496C mice) was found to be 4 mice. For the same compound, in the data set with RyR2^+/RyR^R4496C mice [2] (setting [4]), the “All VT/VF (sum of animals experiencing VTns or VTsust or VF)” value was found to be 4, the “VTns (number of animals)” value turned out to be 0 and the “VTsust & VF (number of animals)” value came out at 4. Also, the “prevention of arrhythmias (in words)” value with RyR2^+/RyR^R4496C mice [2] (RyR2^+/RyR^R4496C mice) is “not effective in preventing arrhythmias”.

These data come from patent publication US7741529B1, “Transgenic animal model for catecholaminergic polymorphic ventricular tachycardia (CPVT) and use thereof” (priority 2006, dated 2010).
